Measurements from patent publication US10206904B2, “Licofelone derivatives and methods of use” (The Board of Regents of the University of Oklahoma, priority 2015, dated 2019).
“And” between values parts separate entries of the source, which are not always exact repeats. Identical values can stand only once. Like-named read-outs stand apart in the source and are kept apart here.

How the values were obtained:
[1] = target: 5-LOX (Rattus norvegicus, UniProt P12527); conditions: two weeks, male F344 rats
Method: (§1) Male F344 rats at 8 weeks of age treated with AOM (15 mg/Kg BW) and exposed to 2% DSS for three days. […] Further, the inflammation was scored by following below criteria: […]

[2] = system: COX-1/2; conditions: two weeks, male F344 rats
Method: as §1

[3] = target: mPGES-1 (Rattus norvegicus, UniProt Q9JHF3); conditions: two weeks, male F344 rats
Method: as §1

[4] = system: AOM-induced colon tumors; conditions: for % AdCA Inhibition (incidence) / % AdCA Inhibition (multiplicity) / % Inv AdCA Inhibition (incidence) / % Inv AdCA Inhibition (multiplicity) / % Non-Inv AdCA Inhibition (incidence) / % Non-Inv AdCA Inhibition (multiplicity) / % adenoma Inhibition (incidence) / % adenoma Inhibition (multiplicity) / % of CRC Tumor Inhibition (incidence) / % of CRC Tumor Inhibition (multiplicity) / AdCA Incidence (% Rats with AdCa) / AdCA Incidence (rats with AdCa/rats) / AdCA Multiplicity (Mean ± SEM) / Adenoma Incidence (% Rats with Adenomas) / Adenoma Incidence (rats with adenomas/rats) / Adenoma Multiplicity (Mean ± SEM) / Invasive AdCA Incidence (% Rats with Invasive AdCa) / Invasive AdCA Incidence (rats with Invasive AdCa/rats) / Invasive AdCA Multiplicity (Mean ± SEM) / Multiplicity Total CRC Tumors (Adenoma + AdCa) (Mean ± SEM) / Non-Inv AdCa Incidence (% Rats with Non-Inv AdCa) / Non-Inv AdCa Incidence (rats with Non-Inv AdCa/rats) / Non-Inv AdCa Multiplicity (Mean ± SEM) / Total CRC Tumors (Adenoma + AdCa) incidence (% rats) / Total CRC Tumors (Adenoma + AdCa) incidence (rats with tumors/rats): AOM-treated male F344 rats
Method: After 42 weeks of experimental diet feeding and total 52 weeks of experimental duration, the rats were necropsied. After necropsy of the rats, the colonic tumors were analyzed histologically. Histopathological evaluation colonic tumor has been completed by two pathologists independently. Colonic tumors were histopathologically classified to adenomas or adenocarcinomas either exophytic (non-invasive) or endophytic (invasive).
Colonic tumors (CTs) were induced by colon specific carcinogen, azoxymethane (AOM) (15 mg/kg by wt, once weekly for 2 weeks) in F344 rats at 8 weeks' age. […] Rats were killed by CO2 asphyxiation 36 weeks after second AOM and the colons were removed, rinsed in PBS, opened longitudinally, and flattened on a filter paper. The location and size of each tumor were noted. Tumors were removed, snap frozen, or fixed in 10% buffered formalin for 24 hours and transferred to 80% ethanol for histopathological analysis. The number and type of colon tumors (adenoma and adenocarcinoma) were analyzed histologically blinded to treatment groups and compared with control diet fed rat colonic tumors.

[5] = system: inflammatory cytokines and receptors; conditions: 800 ppm in diet, AOM-induced rat colon tumors
Method: Colonic tumors (CTs) were induced by colon specific carcinogen Azoxymethane (15 mg/kg by wt, once weekly for 2 weeks) in F344 rats at 8 weeks' age. […] Rats were killed 36 weeks after second AOM and analyzed for inflammatory cytokines and receptors and compared with control diet fed rat colonic tumors.

[6] = 800 ppm in diet, saline treated male F344 rats

Sequence of mPGES-1 (Q9JHF3 whole entry): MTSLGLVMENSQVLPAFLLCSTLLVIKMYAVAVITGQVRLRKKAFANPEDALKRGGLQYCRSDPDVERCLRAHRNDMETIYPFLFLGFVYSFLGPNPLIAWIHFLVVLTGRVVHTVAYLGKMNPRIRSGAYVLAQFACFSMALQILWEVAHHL
Sequence of 5-LOX (P12527 whole entry): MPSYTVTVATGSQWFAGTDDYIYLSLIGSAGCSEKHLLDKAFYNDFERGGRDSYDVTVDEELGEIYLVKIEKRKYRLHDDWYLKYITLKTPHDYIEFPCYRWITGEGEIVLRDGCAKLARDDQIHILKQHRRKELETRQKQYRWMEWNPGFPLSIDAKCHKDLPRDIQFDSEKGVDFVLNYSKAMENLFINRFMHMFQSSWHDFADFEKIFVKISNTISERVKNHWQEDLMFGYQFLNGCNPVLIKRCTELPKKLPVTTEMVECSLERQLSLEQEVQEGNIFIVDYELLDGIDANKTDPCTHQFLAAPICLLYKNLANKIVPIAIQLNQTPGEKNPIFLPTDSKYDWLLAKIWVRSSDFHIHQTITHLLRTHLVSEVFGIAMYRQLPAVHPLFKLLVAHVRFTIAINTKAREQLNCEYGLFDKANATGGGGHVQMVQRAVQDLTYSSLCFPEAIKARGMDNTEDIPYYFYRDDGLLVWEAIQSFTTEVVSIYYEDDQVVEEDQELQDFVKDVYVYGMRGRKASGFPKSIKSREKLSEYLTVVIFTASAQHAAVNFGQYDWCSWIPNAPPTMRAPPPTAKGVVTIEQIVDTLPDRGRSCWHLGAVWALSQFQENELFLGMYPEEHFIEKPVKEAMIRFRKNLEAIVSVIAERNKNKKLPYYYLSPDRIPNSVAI

CC1(C)Cc2c(-c3ccccc3)c(-c3ccc(Cl)cc3)c(CC(=O)NCC(=O)O)n2C1 [LFA-9, licofelone-glycine]
AOM-DSS-Induced 5-LOX (colonic mucosa) ([1]; 100 ppm in diet): 14.5%
AOM-DSS-Induced 5-LOX (colonic mucosa) ([1]; 200 ppm in diet): 22.6%
AOM-DSS-Induced 5-LOX (colonic mucosa) ([1]; 400 ppm in diet): 63.7%
AOM-DSS-Induced 5-LOX (colonic mucosa) ([1]; 600 ppm in diet): 74.7%
AOM-DSS-Induced 5-LOX (colonic mucosa) ([1]; 800 ppm in diet): 88.3%
AOM-DSS-Induced COX-1/2 (colonic mucosa) ([2]; 100 ppm in diet): 3.8%
AOM-DSS-Induced COX-1/2 (colonic mucosa) ([2]; 200 ppm in diet): 8.9%
AOM-DSS-Induced COX-1/2 (colonic mucosa) ([2]; 400 ppm in diet): 15.7%
AOM-DSS-Induced COX-1/2 (colonic mucosa) ([2]; 600 ppm in diet): 31.3%
AOM-DSS-Induced COX-1/2 (colonic mucosa) ([2]; 800 ppm in diet): 42.6%
AOM-DSS-Induced mPGES-1 (colonic mucosa) ([3]; 100 ppm in diet): 22.6%^
AOM-DSS-Induced mPGES-1 (colonic mucosa) ([3]; 200 ppm in diet): 33.7%^
AOM-DSS-Induced mPGES-1 (colonic mucosa) ([3]; 400 ppm in diet): 58%
AOM-DSS-Induced mPGES-1 (colonic mucosa) ([3]; 600 ppm in diet): 77%
AOM-DSS-Induced mPGES-1 (colonic mucosa) ([3]; 800 ppm in diet): 83%
% AdCA Inhibition (incidence) ([4]; 200 ppm in diet): 60%
% AdCA Inhibition (multiplicity) ([4]; 200 ppm in diet): 77%
% Inv AdCA Inhibition (incidence) ([4]; 200 ppm in diet): 85.1%
% Inv AdCA Inhibition (multiplicity) ([4]; 200 ppm in diet): 86.0%
% Non-Inv AdCA Inhibition (incidence) ([4]; 200 ppm in diet): 63.0%
% Non-Inv AdCA Inhibition (multiplicity) ([4]; 200 ppm in diet): 72.9%
% adenoma Inhibition (incidence) ([4]; 200 ppm in diet): 53%
% adenoma Inhibition (multiplicity) ([4]; 200 ppm in diet): 38.3% and 38.27%
% of CRC Tumor Inhibition (incidence) ([4]; 200 ppm in diet): 47.5%
% of CRC Tumor Inhibition (multiplicity) ([4]; 200 ppm in diet): 64% and 64.05%
AdCA Incidence (% Rats with AdCa) ([4]; 200 ppm in diet): (33.3%)
AdCA Incidence (rats with AdCa/rats) ([4]; 200 ppm in diet): 10/30
AdCA Multiplicity (Mean ± SEM) ([4]; 200 ppm in diet): 0.37±0.07 Tumors/Rat
Adenoma Incidence (% Rats with Adenomas) ([4]; 200 ppm in diet): (30.0%)
Adenoma Incidence (rats with adenomas/rats) ([4]; 200 ppm in diet): 9/30
Adenoma Multiplicity (Mean ± SEM) ([4]; 200 ppm in diet): 0.50±0.07 Tumors/Rat
Invasive AdCA Incidence (% Rats with Invasive AdCa) ([4]; 200 ppm in diet): (6.66%)
Invasive AdCA Incidence (rats with Invasive AdCa/rats) ([4]; 200 ppm in diet): 2/30
Invasive AdCA Multiplicity (Mean ± SEM) ([4]; 200 ppm in diet): 0.07 ± 0.02 Tumors/Rat
Multiplicity Total CRC Tumors (Adenoma + AdCa) (Mean ± SEM) ([4]; 200 ppm in diet): 0.87 ± 0.12 Tumors/Rat
Non-Inv AdCa Incidence (% Rats with Non-Inv AdCa) ([4]; 200 ppm in diet): (26.7%)
Non-Inv AdCa Incidence (rats with Non-Inv AdCa/rats) ([4]; 200 ppm in diet): 8/30
Non-Inv AdCa Multiplicity (Mean ± SEM) ([4]; 200 ppm in diet): 0.30 ± 0.05 Tumors/Rat
Total CRC Tumors (Adenoma + AdCa) incidence (% rats) ([4]; 200 ppm in diet): (46.6%)
Total CRC Tumors (Adenoma + AdCa) incidence (rats with tumors/rats) ([4]; 200 ppm in diet): 14/30
% AdCA Inhibition (incidence) ([4]; 400 ppm in diet): 67.9%
% AdCA Inhibition (multiplicity) ([4]; 400 ppm in diet): 81.3%
% Inv AdCA Inhibition (incidence) ([4]; 400 ppm in diet): 77.4%%
% Inv AdCA Inhibition (multiplicity) ([4]; 400 ppm in diet): 80.0%
% Non-Inv AdCA Inhibition (incidence) ([4]; 400 ppm in diet): 72.3%
% Non-Inv AdCA Inhibition (multiplicity) ([4]; 400 ppm in diet): 82.0%
% adenoma Inhibition (incidence) ([4]; 400 ppm in diet): 53%
% adenoma Inhibition (multiplicity) ([4]; 400 ppm in diet): 46.9%
% of CRC Tumor Inhibition (incidence) ([4]; 400 ppm in diet): 55.5% and 55.0%
% of CRC Tumor Inhibition (multiplicity) ([4]; 400 ppm in diet): 69.1% and 69.08%
AdCA Incidence (% Rats with AdCa) ([4]; 400 ppm in diet): (26.7%)
AdCA Incidence (rats with AdCa/rats) ([4]; 400 ppm in diet): 8/30
AdCA Multiplicity (Mean ± SEM) ([4]; 400 ppm in diet): 0.30±0.07 Tumors/Rat
Adenoma Incidence (% Rats with Adenomas) ([4]; 400 ppm in diet): (30.0%)
Adenoma Incidence (rats with adenomas/rats) ([4]; 400 ppm in diet): 9/30
Adenoma Multiplicity (Mean ± SEM) ([4]; 400 ppm in diet): 0.43±0.06 Tumors/Rat
Invasive AdCA Incidence (% Rats with Invasive AdCa) ([4]; 400 ppm in diet): (10.0%)
Invasive AdCA Incidence (rats with Invasive AdCa/rats) ([4]; 400 ppm in diet): 3/30
Invasive AdCA Multiplicity (Mean ± SEM) ([4]; 400 ppm in diet): 0.10 ± 0.02 Tumors/Rat
Multiplicity Total CRC Tumors (Adenoma + AdCa) (Mean ± SEM) ([4]; 400 ppm in diet): 0.73 ± 0.10 Tumors/Rat
Non-Inv AdCa Incidence (% Rats with Non-Inv AdCa) ([4]; 400 ppm in diet): (20.0%)
Non-Inv AdCa Incidence (rats with Non-Inv AdCa/rats) ([4]; 400 ppm in diet): 6/30
Non-Inv AdCa Multiplicity (Mean ± SEM) ([4]; 400 ppm in diet): 0.20 ± 0.04 Tumors/Rat
Total CRC Tumors (Adenoma + AdCa) incidence (% rats) ([4]; 400 ppm in diet): (40.0%)
Total CRC Tumors (Adenoma + AdCa) incidence (rats with tumors/rats) ([4]; 400 ppm in diet): 12/30
% AdCA Inhibition (incidence) ([4]; 800 ppm in diet): 76%
% AdCA Inhibition (multiplicity) ([4]; 800 ppm in diet): 85.7%
% Inv AdCA Inhibition (incidence) ([4]; 800 ppm in diet): 92.5%
% Inv AdCA Inhibition (multiplicity) ([4]; 800 ppm in diet): 94.0%
% Non-Inv AdCA Inhibition (incidence) ([4]; 800 ppm in diet): 72.3%
% Non-Inv AdCA Inhibition (multiplicity) ([4]; 800 ppm in diet): 82.0%
% adenoma Inhibition (incidence) ([4]; 800 ppm in diet): 58.2%
% adenoma Inhibition (multiplicity) ([4]; 800 ppm in diet): 42%
% of CRC Tumor Inhibition (incidence) ([4]; 800 ppm in diet): 47.5%
% of CRC Tumor Inhibition (multiplicity) ([4]; 800 ppm in diet): 71.1% and 71.07%
AdCA Incidence (% Rats with AdCa) ([4]; 800 ppm in diet): (20.0%)
AdCA Incidence (rats with AdCa/rats) ([4]; 800 ppm in diet): 6/30
AdCA Multiplicity (Mean ± SEM) ([4]; 800 ppm in diet): 0.23±0.05 Tumors/Rat
Adenoma Incidence (% Rats with Adenomas) ([4]; 800 ppm in diet): (26.7%)
Adenoma Incidence (rats with adenomas/rats) ([4]; 800 ppm in diet): 8/30
Adenoma Multiplicity (Mean ± SEM) ([4]; 800 ppm in diet): 0.47±0.06 Tumors/Rat
Invasive AdCA Incidence (% Rats with Invasive AdCa) ([4]; 800 ppm in diet): (3.33%)
Invasive AdCA Incidence (rats with Invasive AdCa/rats) ([4]; 800 ppm in diet): 1/30
Invasive AdCA Multiplicity (Mean ± SEM) ([4]; 800 ppm in diet): 0.03 ± 0.01 Tumors/Rat
Multiplicity Total CRC Tumors (Adenoma + AdCa) (Mean ± SEM) ([4]; 800 ppm in diet): 0.70 ± 0.10 Tumors/Rat
Non-Inv AdCa Incidence (% Rats with Non-Inv AdCa) ([4]; 800 ppm in diet): (20.0%)
Non-Inv AdCa Incidence (rats with Non-Inv AdCa/rats) ([4]; 800 ppm in diet): 6/30
Non-Inv AdCa Multiplicity (Mean ± SEM) ([4]; 800 ppm in diet): 0.20 ± 0.04 Tumors/Rat
Total CRC Tumors (Adenoma + AdCa) incidence (% rats) ([4]; 800 ppm in diet): (46.6%)
Total CRC Tumors (Adenoma + AdCa) incidence (rats with tumors/rats) ([4]; 800 ppm in diet): 14/30
AdCA Incidence [4, 6]: 0
AdCA Multiplicity [4, 6]: 0 Tumors/Rat
Adenoma Incidence [4, 6]: 0
Adenoma Multiplicity [4, 6]: 0 Tumors/Rat
Invasive AdCA Incidence [4, 6]: 0
Invasive AdCA Multiplicity [4, 6]: 0 Tumors/Rat
Multiplicity Total CRC Tumors (Adenoma + AdCa) [4, 6]: 0 Tumors/Rat
Non-Inv AdCa Incidence [4, 6]: 0
Non-Inv AdCa Multiplicity [4, 6]: 0 Tumors/Rat
Total CRC Tumors (Adenoma + AdCa) incidence [4, 6]: 0
body weight retardation and observable toxicities ([4]; chronic administration up to 800 ppm in diet, F344 rats): did not show any significant body weight retardation and any observable toxicities
inflammatory cytokines and their receptors (PCR array) in colon tumors versus control [5]: significantly decreased
